{
  "source": "ChEMBL document CHEMBL1138586",
  "about": "(Bioorg Med Chem Lett, 2009)",
  "key": {"[1]": {"test": "Oral bioavailability in Sprague-Dawley rat at 6 mg/kg", "format": "ADME, organism-based", "conditions": "in vivo"}, "[2]": {"test": "Inhibition of kallikrein"}, "[3]": {"test": "Half life in rat at 1 mg/kg, iv and 5 mg/kg, po", "format": "ADME, organism-based", "conditions": "in vivo"}, "[4]": {"test": "Half life in Beagle dog at 0.5 mg/kg, iv and 2.5 mg/kg, po", "format": "ADME, organism-based, Canis lupus familiaris", "conditions": "in vivo"}, "[5]": {"test": "AUC in cynomolgus monkey at 7.5 mg/kg, po", "format": "ADME, organism-based, Macaca fascicularis", "design": "dose 7.5 mg/kg, route oral", "conditions": "plasma"}, "[6]": {"test": "AUC in Beagle dog at 2.5 mg/kg, po", "format": "ADME, organism-based, Canis lupus familiaris", "design": "dose 2.5 mg/kg, route oral", "conditions": "plasma"}, "[7]": {"test": "Clearance in cynomolgus monkey at 0.75 mg/kg, iv and 7.5 mg/kg, po", "format": "ADME, organism-based, Macaca fascicularis", "conditions": "in vivo"}, "Coagulation factor X": {"target": "Coagulation factor X (Homo sapiens, UniProt P00742)", "sequence (P00742 41-179 limits assumed)": "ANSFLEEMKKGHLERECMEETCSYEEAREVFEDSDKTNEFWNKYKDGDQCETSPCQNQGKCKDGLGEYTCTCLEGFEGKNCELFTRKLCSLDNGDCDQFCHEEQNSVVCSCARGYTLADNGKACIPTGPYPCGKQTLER", "sequence (P00742 235-488 limits assumed)": "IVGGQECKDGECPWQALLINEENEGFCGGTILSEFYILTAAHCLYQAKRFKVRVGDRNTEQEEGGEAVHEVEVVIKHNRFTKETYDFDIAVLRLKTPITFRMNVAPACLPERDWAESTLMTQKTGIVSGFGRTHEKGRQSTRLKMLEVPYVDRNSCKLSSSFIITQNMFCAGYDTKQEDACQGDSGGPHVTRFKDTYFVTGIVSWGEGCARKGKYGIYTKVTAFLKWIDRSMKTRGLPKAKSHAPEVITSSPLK", "test": "Inhibition of Factor 10a"}, "[8]": {"test": "Half life in cynomolgus monkey at 0.75 mg/kg, iv and 7.5 mg/kg, po", "format": "ADME, organism-based, Macaca fascicularis", "conditions": "in vivo"}, "[9]": {"target": "T1, Voltage-gated inwardly rectifying potassium channel KCNH2 (Homo sapiens, UniProt Q12809)", "T1 sequence (Q12809 whole entry)": "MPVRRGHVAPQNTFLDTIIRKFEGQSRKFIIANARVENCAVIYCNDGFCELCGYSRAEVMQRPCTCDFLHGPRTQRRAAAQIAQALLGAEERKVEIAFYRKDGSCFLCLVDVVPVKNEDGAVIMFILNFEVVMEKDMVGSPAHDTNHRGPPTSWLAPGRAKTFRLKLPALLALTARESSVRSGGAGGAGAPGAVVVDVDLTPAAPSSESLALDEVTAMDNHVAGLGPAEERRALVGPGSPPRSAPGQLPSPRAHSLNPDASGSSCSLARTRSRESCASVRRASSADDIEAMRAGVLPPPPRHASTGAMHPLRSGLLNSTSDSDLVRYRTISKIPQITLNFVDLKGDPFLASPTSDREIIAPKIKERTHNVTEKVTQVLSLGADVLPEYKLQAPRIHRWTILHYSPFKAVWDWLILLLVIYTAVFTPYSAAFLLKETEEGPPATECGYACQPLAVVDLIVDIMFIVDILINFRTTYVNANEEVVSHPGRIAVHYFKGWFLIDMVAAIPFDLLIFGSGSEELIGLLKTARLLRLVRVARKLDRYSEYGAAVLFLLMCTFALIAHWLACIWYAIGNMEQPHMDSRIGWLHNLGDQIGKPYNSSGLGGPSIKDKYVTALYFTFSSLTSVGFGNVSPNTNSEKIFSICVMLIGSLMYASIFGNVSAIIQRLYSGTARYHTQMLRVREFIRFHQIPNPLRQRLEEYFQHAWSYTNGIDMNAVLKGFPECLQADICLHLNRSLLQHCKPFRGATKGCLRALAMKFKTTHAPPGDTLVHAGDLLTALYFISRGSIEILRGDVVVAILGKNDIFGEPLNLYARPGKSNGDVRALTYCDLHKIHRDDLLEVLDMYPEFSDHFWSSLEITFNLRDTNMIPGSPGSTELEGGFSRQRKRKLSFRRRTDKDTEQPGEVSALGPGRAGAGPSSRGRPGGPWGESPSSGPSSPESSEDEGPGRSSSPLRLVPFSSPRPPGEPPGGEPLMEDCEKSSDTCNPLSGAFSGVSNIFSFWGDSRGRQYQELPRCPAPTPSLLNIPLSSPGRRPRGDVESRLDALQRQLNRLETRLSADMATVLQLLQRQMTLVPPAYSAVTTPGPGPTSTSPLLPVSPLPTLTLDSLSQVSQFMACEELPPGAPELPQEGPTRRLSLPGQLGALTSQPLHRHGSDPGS"}, "[10]": {"test": "Clearance in rat at 1 mg/kg, iv and 5 mg/kg, po", "format": "ADME, organism-based", "conditions": "in vivo"}, "[11]": {"test": "Fraction unbound in human plasma at 10 uM after 30 mins", "format": "ADME, cell-free"}, "[12]": {"test": "Volume of distribution in rat at 1 mg/kg, iv and 5 mg/kg, po", "format": "ADME, organism-based", "conditions": "in vivo"}, "[13]": {"test": "AUC in rat at 5 mg/kg, po", "format": "ADME, organism-based", "design": "dose 5 mg/kg, route oral", "conditions": "plasma"}, "[14]": {"test": "Volume of distribution in cynomolgus monkey at 0.75 mg/kg, iv and 7.5 mg/kg, po", "format": "ADME, organism-based, Macaca fascicularis", "conditions": "in vivo"}, "[15]": {"test": "Oral bioavailability in cynomolgus monkey at 7.5 mg/kg", "format": "ADME, organism-based, Macaca fascicularis", "conditions": "in vivo"}, "[16]": {"test": "Clearance in Beagle dog at 0.5 mg/kg, iv and 2.5 mg/kg, po", "format": "ADME, organism-based, Canis lupus familiaris", "conditions": "in vivo"}, "[17]": {"test": "Oral bioavailability in Beagle dog at 2.5 mg/kg", "format": "ADME, organism-based, Canis lupus familiaris", "conditions": "in vivo"}, "[18]": {"test": "Oral bioavailability in rat at 5 mg/kg", "format": "ADME, organism-based", "conditions": "in vivo"}, "[19]": {"test": "Volume of distribution in Beagle dog at 0.5 mg/kg, iv and 2.5 mg/kg, po", "format": "ADME, organism-based, Canis lupus familiaris", "conditions": "in vivo"}, "[20]": {"target": "T1, Voltage-gated inwardly rectifying potassium channel KCNH2", "test": "Inhibition of human ERG expressed in HEK293 cells by patch-clamp method", "format": "cell-based"}, "Prothrombin": {"target": "Prothrombin (Homo sapiens, UniProt P00734)", "test": "Inhibition of thrombin"}, "[21]": {"test": "Inhibition of trypsin"}, "[22]": {"target": "Tissue-type plasminogen activator (Homo sapiens, UniProt P00750)", "sequence (P00750 whole entry)": "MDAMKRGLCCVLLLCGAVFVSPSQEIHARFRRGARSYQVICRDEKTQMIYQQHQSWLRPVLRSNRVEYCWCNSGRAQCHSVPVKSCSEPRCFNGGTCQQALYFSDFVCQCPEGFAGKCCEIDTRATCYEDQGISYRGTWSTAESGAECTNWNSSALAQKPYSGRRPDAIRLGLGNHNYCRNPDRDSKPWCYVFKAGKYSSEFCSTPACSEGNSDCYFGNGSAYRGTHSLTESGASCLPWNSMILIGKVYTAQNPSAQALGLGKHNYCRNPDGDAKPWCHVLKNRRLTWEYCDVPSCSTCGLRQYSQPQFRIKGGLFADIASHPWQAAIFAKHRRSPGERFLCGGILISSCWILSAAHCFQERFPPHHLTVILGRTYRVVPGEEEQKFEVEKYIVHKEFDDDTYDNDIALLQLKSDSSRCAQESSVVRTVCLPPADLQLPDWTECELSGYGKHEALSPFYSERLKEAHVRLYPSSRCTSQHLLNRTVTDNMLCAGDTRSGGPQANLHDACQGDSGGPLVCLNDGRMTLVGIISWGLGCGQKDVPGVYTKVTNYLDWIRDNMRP", "test": "Inhibition of tissue plasminogen activator"}, "[23]": {"target": "Vitamin K-dependent protein C (Homo sapiens, UniProt P04070)", "sequence (P04070 43-197 limits assumed)": "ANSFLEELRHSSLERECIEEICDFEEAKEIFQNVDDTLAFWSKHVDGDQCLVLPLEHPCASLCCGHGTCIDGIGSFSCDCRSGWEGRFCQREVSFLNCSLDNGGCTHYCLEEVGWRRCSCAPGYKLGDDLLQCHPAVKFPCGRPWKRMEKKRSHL", "sequence (P04070 212-461 limits assumed)": "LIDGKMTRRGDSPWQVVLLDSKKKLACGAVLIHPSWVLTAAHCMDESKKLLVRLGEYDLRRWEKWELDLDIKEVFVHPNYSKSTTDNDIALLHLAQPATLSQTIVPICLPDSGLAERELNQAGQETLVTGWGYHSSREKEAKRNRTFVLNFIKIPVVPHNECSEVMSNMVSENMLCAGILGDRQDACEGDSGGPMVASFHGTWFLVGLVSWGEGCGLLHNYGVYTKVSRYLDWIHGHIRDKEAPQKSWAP", "test": "Inhibition of activated anticoagulant protein C"}, "Plasminogen": {"target": "Plasminogen (Homo sapiens, UniProt P00747)", "sequence (P00747 97-580 limits assumed)": "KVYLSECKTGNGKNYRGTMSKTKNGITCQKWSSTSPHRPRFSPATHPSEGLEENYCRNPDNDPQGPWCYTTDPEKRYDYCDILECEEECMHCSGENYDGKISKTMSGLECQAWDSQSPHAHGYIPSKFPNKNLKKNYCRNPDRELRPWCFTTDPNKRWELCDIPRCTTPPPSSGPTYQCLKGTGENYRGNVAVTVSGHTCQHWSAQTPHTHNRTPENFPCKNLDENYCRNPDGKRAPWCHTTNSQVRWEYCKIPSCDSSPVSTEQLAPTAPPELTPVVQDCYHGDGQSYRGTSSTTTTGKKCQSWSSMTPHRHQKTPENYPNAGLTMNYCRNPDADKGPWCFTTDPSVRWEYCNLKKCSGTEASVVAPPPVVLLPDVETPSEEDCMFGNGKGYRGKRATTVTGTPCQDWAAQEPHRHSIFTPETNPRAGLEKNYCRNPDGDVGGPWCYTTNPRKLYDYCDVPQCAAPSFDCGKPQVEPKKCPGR", "sequence (P00747 581-810 limits assumed)": "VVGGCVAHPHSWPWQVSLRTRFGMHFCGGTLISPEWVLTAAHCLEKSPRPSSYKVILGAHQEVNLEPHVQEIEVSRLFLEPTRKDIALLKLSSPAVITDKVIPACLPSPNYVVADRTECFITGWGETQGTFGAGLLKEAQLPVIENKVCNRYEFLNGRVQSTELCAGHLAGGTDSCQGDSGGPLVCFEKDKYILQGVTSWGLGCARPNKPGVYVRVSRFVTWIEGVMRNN", "test": "Inhibition of plasmin"}},
  "data": [
    {"smiles": "CN(C)C(=N)c1ccc(C(=O)Nc2ccccc2C(=O)Nc2ccc(Cl)cn2)cc1", "values": [
      {"measurement": "bioavailability", "setting": "[1]", "value": 31, "unit": "%"}
    ]},
    {"smiles": "COc1ccc(NC(=O)c2ccc(C(=N)N(C)C)cc2F)c(C(=O)Nc2ccc(Cl)cn2)c1", "values": [
      {"measurement": "IC50", "setting": "[2]", "value": 7.2, "unit": "µM"},
      {"measurement": "half-life", "setting": "[3]", "value": 5.5, "unit": "h"},
      {"measurement": "half-life", "setting": "[4]", "value": 7.9, "unit": "h"},
      {"measurement": "AUC", "setting": "[5]", "value": 6.17, "unit": "µg·h/mL"},
      {"measurement": "AUC", "setting": "[6]", "value": 1.5, "unit": "µg·h/mL"},
      {"measurement": "clearance", "setting": "[7]", "value": 0.972, "unit": "L/h/kg"},
      {"measurement": "IC50", "setting": "Coagulation factor X", "value": 0.0007, "unit": "µM"},
      {"measurement": "Ki", "setting": "Coagulation factor X", "value": 0.000105, "unit": "µM"},
      {"measurement": "half-life", "setting": "[8]", "value": 11.4, "unit": "h"},
      {"measurement": "Ki", "setting": "[9]", "value": 2.1, "unit": "µM"},
      {"measurement": "clearance", "setting": "[10]", "value": 3.45, "unit": "L/h/kg"},
      {"measurement": "fraction unbound at 0.5 h, 10 µM", "setting": "[11]", "value": 0.634},
      {"measurement": "Vd", "setting": "[12]", "value": 26.5, "unit": "L/kg"},
      {"measurement": "AUC", "setting": "[13]", "value": 0.77, "unit": "µg·h/mL"},
      {"measurement": "Vd", "setting": "[14]", "value": 16.3, "unit": "L/kg"},
      {"measurement": "bioavailability", "setting": "[15]", "value": 77.6, "unit": "%"},
      {"measurement": "clearance", "setting": "[16]", "value": 1.48, "unit": "L/h/kg"},
      {"measurement": "bioavailability", "setting": "[17]", "value": 88.9, "unit": "%"},
      {"measurement": "bioavailability", "setting": "[18]", "value": 48.6, "unit": "%"},
      {"measurement": "Vd", "setting": "[19]", "value": 16.8, "unit": "L/kg"},
      {"measurement": "IC50", "setting": "[20]", "value": 4.2, "unit": "µM"}
    ]},
    {"smiles": "COc1ccc(NC(=O)c2ccc(C(=N)N(C)C)cc2)c(C(=O)Nc2ccc(Cl)cn2)c1", "note": "[BETRIXABAN]", "values": [
      {"measurement": "IC50", "setting": "Prothrombin", "value": "> 10", "unit": "µM"},
      {"measurement": "IC50", "setting": "[2]", "value": 6.3, "unit": "µM"},
      {"measurement": "half-life", "setting": "[3]", "value": 8.8, "unit": "h"},
      {"measurement": "half-life", "setting": "[4]", "value": 21.2, "unit": "h"},
      {"measurement": "AUC", "setting": "[5]", "value": 4.18, "unit": "µg·h/mL"},
      {"measurement": "AUC", "setting": "[6]", "value": 0.825, "unit": "µg·h/mL"},
      {"measurement": "clearance", "setting": "[7]", "value": 1.12, "unit": "L/h/kg"},
      {"measurement": "half-life", "setting": "[8]", "value": 9.6, "unit": "h"},
      {"measurement": "IC50", "setting": "[21]", "value": "> 10", "unit": "µM"},
      {"measurement": "clearance", "setting": "[10]", "value": 2.62, "unit": "L/h/kg"},
      {"measurement": "fraction unbound at 0.5 h, 10 µM", "setting": "[11]", "value": 0.8},
      {"measurement": "Vd", "setting": "[12]", "value": 32.9, "unit": "L/kg"},
      {"measurement": "AUC", "setting": "[13]", "value": 0.456, "unit": "µg·h/mL"},
      {"measurement": "IC50", "setting": "[22]", "value": "> 10", "unit": "µM"},
      {"measurement": "Vd", "setting": "[14]", "value": 13.4, "unit": "L/kg"},
      {"measurement": "bioavailability", "setting": "[15]", "value": 58.7, "unit": "%"},
      {"measurement": "clearance", "setting": "[16]", "value": 1.59, "unit": "L/h/kg"},
      {"measurement": "IC50", "setting": "[23]", "value": "> 10", "unit": "µM"},
      {"measurement": "bioavailability", "setting": "[17]", "value": 51.6, "unit": "%"},
      {"measurement": "bioavailability", "setting": "[18]", "value": 23.8, "unit": "%"},
      {"measurement": "Vd", "setting": "[19]", "value": 48.8, "unit": "L/kg"},
      {"measurement": "IC50", "setting": "Plasminogen", "value": "> 10", "unit": "µM"}
    ]}
  ]
}
